# According to patent US11732256B2, “Multivalent glycopeptides that tightly bind to target proteins” (Brandeis University, priority 2013, dated 2023):
# Test system: HIV broadly neutralizing antibody 2G12
# Assay: Radioactive 2G12-glycopeptide binding assay with protein G magnetic beads (binding curve and KD determination)
# Procedure: The sequences were obtained by cloning non-selected library DNA. […] FIG. 9B is an SDS-PAGE analysis of the click reaction of the non-selected peptides. Both peptides were transcribed and translated from PCR-amplified DNA in Pure System that contains 0.02 mg/mL T7 RNA polymerase and additional 1 mM each NTP. The peptides were labeled with 3H-histidine and the bands were visualized by fluorography.
# For round 10 winners, 0.12-0.2 nM radioactive glycopeptides were incubated with 0, 0.25, 0.5, 1, 2, 4, 8, 16, 32 or 64 nM 2G12 in 40 μL of selection buffer at room temperature for 1 h. Then, the solution was added to 0.12 mg of pre-equilibrated Dynabeads Protein G and tumbled at room temperature for 30 min. The supernatant was removed and the beads were washed with 3×40 μL of selection buffer. The radioactivities of the supernatant and wash solutions were measured by liquid scintillation counting as unbound fractions. […] The beads were resuspended in 40 μL of selection buffer, heated at 70° C. for 30 min to elute the bound glycopeptides, chilled on ice for 5 min, and tumbled at room temperature for 10 min. The supernatant was removed, and the beads were washed with 40 μL of selection buffer and resuspended in 40 μL of selection buffer. The radioactivities of these solutions and suspensions were measured by liquid scintillation counting separately and the values were combined as apparent bound fractions. […] All experiments were done at least in triplicate. KDs were calculated as described in the footnote of Table 4 (below).
Structure (SMILES),"Fmax [%] (Table 6 mutants/truncations, radioactive binding assay)",2G12 binding after truncation (truncated clones),Tolerance of Cys substitutions for 2G12 binding (Cys mutated to Ser)
"CC[C@H](C)[C@H](NC(=O)[C@H](CCCNC(=N)N)NC(=O)[C@H](Cc1c[nH]cn1)NC(=O)[C@H](Cc1ccccc1)NC(=O)[C@H](CC(C)C)NC(=O)[C@H](C)NC(=O)[C@H](CC(C)C)NC(=O)[C@H](C)NC(=O)[C@H](Cc1ccc(O)cc1)NC(=O)[C@H](CCc1cn(C2CCC(OC3O[C@H](CO[C@H]4O[C@H](CO[C@H]5O[C@H](CO)[C@@H](O)[C@H](O)[C@@H]5O[C@H]5O[C@H](CO)[C@@H](O)[C@H](O)[C@@H]5O)[C@@H](O)[C@H](O[C@H]5O[C@H](CO)[C@@H](O)[C@H](O)[C@@H]5O[C@H]5O[C@H](CO)[C@@H](O)[C@H](O)[C@@H]5O)[C@@H]4O)[C@@H](O)[C@H](O[C@H]4O[C@H](CO)[C@@H](O)[C@H](O)[C@@H]4O[C@H]4O[C@H](CO)[C@@H](O)[C@H](O)[C@@H]4O[C@H]4O[C@H](CO)[C@@H](O)[C@H](O)[C@@H]4O)[C@@H]3O)CC2)nn1)NC(=O)[C@H](CC(=O)O)NC(=O)[C@@H](NC(=O)[C@@H](NC(=O)[C@H](CCC(N)=O)NC(=O)[C@H](CCc1cn(C2CCC(OC3O[C@H](CO[C@H]4O[C@H](CO[C@H]5O[C@H](CO)[C@@H](O)[C@H](O)[C@@H]5O[C@H]5O[C@H](CO)[C@@H](O)[C@H](O)[C@@H]5O)[C@@H](O)[C@H](O[C@H]5O[C@H](CO)[C@@H](O)[C@H](O)[C@@H]5O[C@H]5O[C@H](CO)[C@@H](O)[C@H](O)[C@@H]5O)[C@@H]4O)[C@@H](O)[C@H](O[C@H]4O[C@H](CO)[C@@H](O)[C@H](O)[C@@H]4O[C@H]4O[C@H](CO)[C@@H](O)[C@H](O)[C@@H]4O[C@H]4O[C@H](CO)[C@@H](O)[C@H](O)[C@@H]4O)[C@@H]3O)CC2)nn1)NC(=O)[C@H](CCCCN)NC(=O)[C@H](CC(C)C)NC(=O)[C@H](C)NC(=O)[C@H](C)NC(=O)[C@H](CCc1cn(C2CCC(OC3O[C@H](CO[C@H]4O[C@H](CO[C@H]5O[C@H](CO)[C@@H](O)[C@H](O)[C@@H]5O[C@H]5O[C@H](CO)[C@@H](O)[C@H](O)[C@@H]5O)[C@@H](O)[C@H](O[C@H]5O[C@H](CO)[C@@H](O)[C@H](O)[C@@H]5O[C@H]5O[C@H](CO)[C@@H](O)[C@H](O)[C@@H]5O)[C@@H]4O)[C@@H](O)[C@H](O[C@H]4O[C@H](CO)[C@@H](O)[C@H](O)[C@@H]4O[C@H]4O[C@H](CO)[C@@H](O)[C@H](O)[C@@H]4O[C@H]4O[C@H](CO)[C@@H](O)[C@H](O)[C@@H]4O)[C@@H]3O)CC2)nn1)NC(=O)[C@H](CCc1cn(C2CCC(OC3O[C@H](CO[C@H]4O[C@H](CO[C@H]5O[C@H](CO)[C@@H](O)[C@H](O)[C@@H]5O[C@H]5O[C@H](CO)[C@@H](O)[C@H](O)[C@@H]5O)[C@@H](O)[C@H](O[C@H]5O[C@H](CO)[C@@H](O)[C@H](O)[C@@H]5O[C@H]5O[C@H](CO)[C@@H](O)[C@H](O)[C@@H]5O)[C@@H]4O)[C@@H](O)[C@H](O[C@H]4O[C@H](CO)[C@@H](O)[C@H](O)[C@@H]4O[C@H]4O[C@H](CO)[C@@H](O)[C@H](O)[C@@H]4O[C@H]4O[C@H](CO)[C@@H](O)[C@H](O)[C@@H]4O)[C@@H]3O)CC2)nn1)NC=O)C(C)C)[C@@H](C)O)C(=O)N[C@@H](CC(C)C)C(=O)NCC(=O)N[C@@H](CO)C(=O)NCC(=O)N[C@@H](CO)C(=O)N[C@@H](CC(C)C)C(=O)NCC(=O)N[C@@H](Cc1c[nH]cn1)C(=O)N[C@@H](Cc1c[nH]cn1)C(=O)N[C@@H](Cc1c[nH]cn1)C(=O)N[C@@H](Cc1c[nH]cn1)C(=O)N[C@@H](Cc1c[nH]cn1)C(=O)N[C@@H](Cc1c[nH]cn1)C(=O)N[C@@H](CCCNC(=N)N)C(=O)N[C@@H](CC(=O)O)C(=O)N[C@@H](Cc1ccc(O)cc1)C(=O)N[C@@H](CCCCN)C(=O)N[C@@H](CC(=O)O)C(=O)N[C@@H](CC(=O)O)C(=O)N[C@@H](CC(=O)O)C(=O)N[C@@H](CC(=O)O)C(=O)N[C@@H](CCCCN)C(=O)O (stereo partly drawn) [Clone 10F2-Δ11, XXAALKXQVTDXYALALFHRIL]",70,tight binding,
"CC[C@H](C)[C@H](NC(=O)[C@H](CCC(N)=O)NC(=O)[C@H](CCCCN)NC(=O)[C@H](CC(C)C)NC(=O)[C@H](Cc1c[nH]cn1)NC(=O)[C@H](CC(C)C)NC(=O)[C@@H](NC(=O)[C@H](CC(=O)O)NC(=O)[C@H](CCc1cn(C2CCC(OC3O[C@H](CO[C@H]4O[C@H](CO[C@H]5O[C@H](CO)[C@@H](O)[C@H](O)[C@@H]5O[C@H]5O[C@H](CO)[C@@H](O)[C@H](O)[C@@H]5O)[C@@H](O)[C@H](O[C@H]5O[C@H](CO)[C@@H](O)[C@H](O)[C@@H]5O[C@H]5O[C@H](CO)[C@@H](O)[C@H](O)[C@@H]5O)[C@@H]4O)[C@@H](O)[C@H](O[C@H]4O[C@H](CO)[C@@H](O)[C@H](O)[C@@H]4O[C@H]4O[C@H](CO)[C@@H](O)[C@H](O)[C@@H]4O[C@H]4O[C@H](CO)[C@@H](O)[C@H](O)[C@@H]4O)[C@@H]3O)CC2)nn1)NC=O)[C@@H](C)O)C(=O)NCC(=O)NCC(=O)N[C@@H](CCc1cn(C2CCC(OC3O[C@H](CO[C@H]4O[C@H](CO[C@H]5O[C@H](CO)[C@@H](O)[C@H](O)[C@@H]5O[C@H]5O[C@H](CO)[C@@H](O)[C@H](O)[C@@H]5O)[C@@H](O)[C@H](O[C@H]5O[C@H](CO)[C@@H](O)[C@H](O)[C@@H]5O[C@H]5O[C@H](CO)[C@@H](O)[C@H](O)[C@@H]5O)[C@@H]4O)[C@@H](O)[C@H](O[C@H]4O[C@H](CO)[C@@H](O)[C@H](O)[C@@H]4O[C@H]4O[C@H](CO)[C@@H](O)[C@H](O)[C@@H]4O[C@H]4O[C@H](CO)[C@@H](O)[C@H](O)[C@@H]4O)[C@@H]3O)CC2)nn1)C(=O)N1CCC[C@H]1C(=O)N[C@@H](CC(N)=O)C(=O)N[C@@H](CS)C(=O)N[C@H](C(=O)N[C@H](C(=O)N[C@@H](CCC(N)=O)C(=O)N[C@@H](CCC(N)=O)C(=O)N[C@@H](CC(=O)O)C(=O)N[C@H](C(=O)N[C@@H](CCCNC(=N)N)C(=O)N[C@@H](CCc1cn(C2CCC(OC3O[C@H](CO[C@H]4O[C@H](CO[C@H]5O[C@H](CO)[C@@H](O)[C@H](O)[C@@H]5O[C@H]5O[C@H](CO)[C@@H](O)[C@H](O)[C@@H]5O)[C@@H](O)[C@H](O[C@H]5O[C@H](CO)[C@@H](O)[C@H](O)[C@@H]5O[C@H]5O[C@H](CO)[C@@H](O)[C@H](O)[C@@H]5O)[C@@H]4O)[C@@H](O)[C@H](O[C@H]4O[C@H](CO)[C@@H](O)[C@H](O)[C@@H]4O[C@H]4O[C@H](CO)[C@@H](O)[C@H](O)[C@@H]4O[C@H]4O[C@H](CO)[C@@H](O)[C@H](O)[C@@H]4O)[C@@H]3O)CC2)nn1)C(=O)N[C@H](C(=O)N[C@@H](CO)C(=O)N[C@H](C(=O)N1CCC[C@H]1C(=O)N[C@@H](Cc1ccc(O)cc1)C(=O)N[C@H](C(=O)N[C@@H](Cc1ccc(O)cc1)C(=O)N[C@H](C(=O)N[C@@H](Cc1c[nH]c2ccccc12)C(=O)N1CCC[C@H]1C(=O)NCC(=O)N[C@@H](CO)C(=O)NCC(=O)N[C@@H](CO)C(=O)N[C@@H](CC(C)C)C(=O)NCC(=O)N[C@@H](Cc1c[nH]cn1)C(=O)N[C@@H](Cc1c[nH]cn1)C(=O)N[C@@H](Cc1c[nH]cn1)C(=O)N[C@@H](Cc1c[nH]cn1)C(=O)N[C@@H](Cc1c[nH]cn1)C(=O)N[C@@H](Cc1c[nH]cn1)C(=O)N[C@@H](CCCNC(=N)N)C(=O)N[C@@H](CC(=O)O)C(=O)N[C@@H](Cc1ccc(O)cc1)C(=O)N[C@@H](CCCCN)C(=O)N[C@@H](CC(=O)O)C(=O)N[C@@H](CC(=O)O)C(=O)N[C@@H](CC(=O)O)C(=O)N[C@@H](CC(=O)O)C(=O)N[C@@H](CCCCN)C(=O)O)[C@@H](C)O)[C@@H](C)O)[C@@H](C)CC)[C@@H](C)O)C(C)C)[C@@H](C)O)[C@@H](C)CC (stereo partly drawn) [Clone 10F3, XDTLHLKQIGGXPNCITQQDVRXTSIPYTYTWP]",,,tolerated
